Substitutions are numbered along the chain they refer to. Numbered stars: 1 amine (or outer) side, 2 acyl side, 3 side chain; on linkers, the order of the positions; unused ones are H or OH. Bridge positions count the residues as written; N and C are the ends. Square brackets hold non-standard residues; d marks the D form. Peptide text beside a SMILES is read from it. X2 = CC(=O)NC(C(=O)OC(C(C)C)C(N[*:1])C(=O)[*:2])C(O)C(C)C; PhLac = O=C(O)[CH](O)Cc1ccccc1; NMeT = CN[CH](C(=O)O)[CH](C)O; NMeA = CN[CH](C)C(=O)O; NMeDha = C=C(NC)C(=O)O

Holding throughout (assay): cell-based
Common to all, as to details: read-out: YM pIC50 (converted)

One test has as its target T1, Gα16 (G16 WT) C196P (Homo sapiens, UniProt P30679, C196P).
T1 construct: gene GNA15; human Gα16 cDNA in pcDNA3.1(+), expressed in CRISPR/Cas9 Gαq/Gα11-null HEK293 cells (transient); endogenous Gβγ
T1 sequence (P30679 1-374 C196P): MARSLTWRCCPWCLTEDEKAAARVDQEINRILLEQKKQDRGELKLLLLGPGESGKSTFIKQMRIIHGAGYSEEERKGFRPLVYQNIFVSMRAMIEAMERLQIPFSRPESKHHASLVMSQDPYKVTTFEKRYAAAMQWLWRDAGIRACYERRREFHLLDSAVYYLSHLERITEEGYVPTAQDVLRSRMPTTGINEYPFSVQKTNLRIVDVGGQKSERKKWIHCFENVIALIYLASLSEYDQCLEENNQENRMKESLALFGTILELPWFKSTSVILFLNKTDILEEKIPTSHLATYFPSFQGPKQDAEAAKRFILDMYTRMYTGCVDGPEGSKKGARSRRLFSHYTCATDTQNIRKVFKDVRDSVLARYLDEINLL
Further details: species or system HEK293 Gαq/Gα11-null (CRISPR/Cas9). The protocol: (§1) Successful mutations were verified by DNA sequencing. Subconfluent cell cultures were transiently transfected with the respective expression plasmids using the polyethylenimine reagent (Polysciences, Warrington, PA) following the protocol provided by the manufacturer. All data were analyzed using GraphPad Prism 8.0.0 (GraphPad Inc., La Jolla, CA). Quantification of DMR signals was performed by calculation of the maximum responses. Data points from concentration-response or inhibition curves of individual functional experiments were fitted to the following four-parameter logistic function. (Eq. 1) Y=Bottom+(Top−Bottom)/1+10^(logEC50−x)slope Concentration-effect curves represented in figures were normalized by setting each experimental maximal effect as 100% response. All data are expressed as mean + or ± S.E. of at least three independent experiments performed in technical triplicates.

In another test the target is T2, Gα16 (G16 WT) E74D (Homo sapiens, UniProt P30679, E74D).
T2 construct: gene GNA15; human Gα16 cDNA in pcDNA3.1(+), expressed in CRISPR/Cas9 Gαq/Gα11-null HEK293 cells (transient); endogenous Gβγ
T2 sequence (P30679 1-374 E74D): T1 sequence (P30679 1-374 C196P) with E74D, P196C
Further details: species or system HEK293 Gαq/Gα11-null (CRISPR/Cas9). On the procedure:
as §1

In a further test the target is T3, Gα16 (G16 WT) M187V (Homo sapiens, UniProt P30679, M187V).
T3 construct: gene GNA15; human Gα16 cDNA in pcDNA3.1(+), expressed in CRISPR/Cas9 Gαq/Gα11-null HEK293 cells (transient); endogenous Gβγ
T3 sequence (P30679 1-374 M187V): T1 sequence (P30679 1-374 C196P) with M187V, P196C
On the set-up: species or system HEK293 Gαq/Gα11-null (CRISPR/Cas9). The protocol:
as §1

In the next test the target is T4, Gα16 (G16 WT) S185V (Homo sapiens, UniProt P30679, S185V).
T4 construct: gene GNA15; human Gα16 cDNA in pcDNA3.1(+), expressed in CRISPR/Cas9 Gαq/Gα11-null HEK293 cells (transient); endogenous Gβγ
T4 sequence (P30679 1-374 S185V): T1 sequence (P30679 1-374 C196P) with S185V, P196C
Further details: species or system HEK293 Gαq/Gα11-null (CRISPR/Cas9), transfected Gα. The protocol:
Quantification of DMR signals was performed by calculation of the maximum responses. Data points from concentration-response or inhibition curves of individual functional experiments were fitted to the following four-parameter logistic function. (Eq. 1) Y=Bottom+(Top−Bottom)/1+10^(logEC50−x)slope Concentration-effect curves represented in figures were normalized by setting each experimental maximal effect as 100% response. All data are expressed as mean + or ± S.E. of at least three independent experiments performed in technical triplicates. […] Because none of our mutant proteins were […], we searched for additional residues that, when mutated, may incur activity loss for the two depsipeptides. We focused our attention on residues that (i) differed between Gαq and Gα16, (ii) were not addressed previously by mutagenesis, and (iii) were located on both linkers, including adjacent regions, to either directly interact with the depsipeptides (if side-chain or Gα atoms were within 5 Å to YM) or to be close enough to assist in stabilizing the inhibitor–protein interactions. Aspartate 71 (Asp-71) and valine 182 (Val-182) fulfilled these criteria (Fig. 3A; see also Fig. 2A): Asp-71 is part of an aspartic acid–arginine salt bridge that likely provides the interface between the depsipeptides and linker 1 by stabilizing and maintaining the inhibitor–linker 1 spacing (Fig. 3B). […]

For `C=C1C(=O)NC(C)C(=O)N(C)C(C)C(=O)NC(C(OC(=O)C(NC(C)=O)C(O)C(C)C)C(C)C)C(=O)N(C)C(C(C)OC)C(=O)OC(C)C(NC(C)=O)C(=O)OC(Cc2ccccc2)C(=O)N1C` (stereo not shown) [YM, YM-254890] (Ac-T[PhLac][NMeDha]A[NMeA][X2][NMeT](Me); ester 1-C; configuration not given here), the IC50 on Gα16 (G16 WT) C196P was greater than 1000 µM; on Gα16 (G16 WT) E74D, greater than 1000 µM; at Gα16 (G16 WT) M187V, greater than 1000 µM; at Gα16 (G16 WT) S185V it was roughly 316 µM.

The values above are taken from publication PMC6463727, “Rational design of a heterotrimeric G protein α subunit with artificial inhibitor sensitivity” (The Journal of Biological Chemistry, 2019).
